In ChEMBL document CHEMBL1145549, “Constrained NBMPR analogue synthesis, pharmacophore mapping and 3D-QSAR modeling of equilibrative nucleoside transporter 1 (ENT1) inhibitory activity” (Bioorg Med Chem, 2008):

biological target: T1, Equilibrative nucleoside transporter 1 (Homo sapiens, UniProt Q99808); assay: Binding affinity to ENT1 transporter
T1 sequence (Q99808 whole entry): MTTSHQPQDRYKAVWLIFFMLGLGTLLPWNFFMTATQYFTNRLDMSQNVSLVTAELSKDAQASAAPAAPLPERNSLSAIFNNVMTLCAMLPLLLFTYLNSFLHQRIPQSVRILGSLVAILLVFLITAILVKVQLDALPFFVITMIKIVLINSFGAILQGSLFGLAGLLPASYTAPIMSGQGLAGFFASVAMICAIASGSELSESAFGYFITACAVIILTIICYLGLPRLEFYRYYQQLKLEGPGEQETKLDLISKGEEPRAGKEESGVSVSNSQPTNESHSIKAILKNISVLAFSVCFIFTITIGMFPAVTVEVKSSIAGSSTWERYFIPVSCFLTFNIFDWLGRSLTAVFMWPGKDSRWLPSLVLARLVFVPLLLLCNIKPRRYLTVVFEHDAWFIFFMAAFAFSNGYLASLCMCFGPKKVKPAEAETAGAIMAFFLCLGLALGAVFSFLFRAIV

Compound | IC50
CC(C)CSc1nc(N)nc2c1ncn2[C@@H]1O[C@H](CO)[C@@H](O)[C@H]1O | 8.71 µM
COc1cccc(CNc2ncnc3c2ncn3[C@@H]2O[C@H](CO)[C@@H](O)[C@H]2O)c1 | 115 µM
CC(C)Nc1ncnc2c1ncn2[C@@H]1O[C@H](CO)[C@@H](O)[C@H]1O | 257 µM
OC[C@H]1O[C@@H](n2cnc3c(CSc4ccc(Cl)cc4)ncnc32)[C@H](O)[C@@H]1O | 0.251 µM
CSc1ncnc2c1c(Br)cn2[C@@H]1O[C@H](CO)[C@@H](O)[C@H]1O | 115 µM
CCCC(C)n1cnc2c(SCc3ccccn3)nc(N)nc21 (centres undefined) | 41.7 µM
O=[N+]([O-])c1ccc2c(c1)CCN(c1ncnc3c1ncn3[C@@H]1O[C@H](CO)[C@@H](O)[C@H]1O)C2 | 0.182 µM
N#Cc1ccc(SCc2ncnc3c2ncn3[C@@H]2O[C@H](CO)[C@@H](O)[C@H]2O)cc1 | 0.0813 µM
O=[N+]([O-])c1cc(CNc2ncnc3c2ncn3[C@@H]2O[C@H](CO)[C@@H](O)[C@H]2O)ccc1Cl | 0.708 µM
O=[N+]([O-])c1ccc(CNc2ncnc3c2ncn3[C@@H]2O[C@H](CO)[C@@H](O)[C@H]2O)cc1 | 0.0275 µM
Nc1nc(SCc2cccc([N+](=O)[O-])c2)c2ncn([C@@H]3O[C@H](CO)[C@@H](O)[C@H]3O)c2n1 | 0.178 µM
CCCCn1cnc2c(SCc3ccccn3)nc(N)nc21 | 52.5 µM
O=[N+]([O-])c1ccc(CNc2ncnc3c2ncn3[C@@H]2O[C@H](CO)[C@@H](O)[C@@H]2O)cc1 | 0.0316 µM
Nc1nc(SCc2ccccn2)c2ncn([C@@H]3O[C@H](CO)[C@@H](O)[C@H]3O)c2n1 | 34.7 µM
Nc1nc(SCc2cc([N+](=O)[O-])ccc2O)c2ncn([C@@H]3O[C@H](CO)[C@@H](O)[C@H]3O)c2n1 | 0.00275 µM
O=[N+]([O-])c1ccc(CNc2ncnc3c2ncn3[C@@H]2O[C@H](CO)[C@@H](O)[C@H]2O)c(Cl)c1 | 0.347 µM
OC[C@H]1O[C@@H](n2cnc3c(NCc4ccco4)ncnc32)[C@H](O)[C@@H]1O [KINETIN RIBOSIDE] | 36.3 µM
O=[N+]([O-])c1ccc(CNc2ncnc3c2ncn3[C@@H]2O[C@H](CO)C[C@H]2O)cc1 | 0.977 µM
OC[C@H]1O[C@@H](n2cnc3c(CSc4ccc(Cl)c(Cl)c4)ncnc32)[C@H](O)[C@@H]1O | 0.224 µM
CCC(C)Sc1nc(N)nc2c1ncn2[C@@H]1O[C@H](CO)[C@@H](O)[C@H]1O (some centres undefined) | 63.1 µM
CC(C)CCNc1ncnc2[nH]ncc12 | 234 µM

Compound | IC50
CCCCn1cnc2c(SC(C)C)nc(N)nc21 | 120 µM
Nc1nc(SCc2ccc(F)cc2)c2ncn([C@@H]3O[C@H](CO)[C@@H](O)[C@H]3O)c2n1 | 1.15 µM
OC[C@H]1O[C@@H](n2cnc3c(SCc4ccccc4)ncnc32)[C@H](O)[C@@H]1O [6-BENZYLTHIOINOSINE] | 1.7 µM
O=[N+]([O-])c1ccc(O)c(CSc2ncnc3c2ncn3[C@@H]2O[C@H](CO)[C@@H](O)[C@H]2O)c1 | 0.0331 µM
O=[N+]([O-])c1cc(Cl)ccc1CNc1ncnc2c1ncn2[C@@H]1O[C@H](CO)[C@@H](O)[C@H]1O | 46.8 µM
OC[C@H]1O[C@@H](n2cnc3c(CSc4c(F)cccc4Cl)ncnc32)[C@H](O)[C@@H]1O | 1.51 µM
OC[C@H]1O[C@@H](n2cc(I)c3c(Cl)ncnc32)[C@H](O)[C@@H]1O | 77.6 µM
OC[C@H]1O[C@@H](n2cnc3c(CSc4ccc(OC(F)(F)F)cc4)ncnc32)[C@H](O)[C@@H]1O | 0.123 µM
CN(Cc1ccc([N+](=O)[O-])cc1)c1ncnc2c1ncn2[C@@H]1O[C@H](CO)[C@@H](O)[C@H]1O | 0.309 µM
CSc1ncnc2c1ncn2C1CCCCO1 (centres undefined) | 275 µM
CSc1nc(N)nc2c1ncn2[C@@H]1O[C@H](CO)[C@@H](O)[C@H]1O | 204 µM
CCCSc1nc(N)nc2c1ncn2[C@@H]1O[C@H](CO)[C@@H](O)[C@H]1O | 32.4 µM
COc1ccc(SCc2ncnc3c2ncn3[C@@H]2O[C@H](CO)[C@@H](O)[C@H]2O)cc1 | 0.617 µM
Cc1cc(C)c(SCc2ncnc3c2ncn3[C@@H]2O[C@H](CO)[C@@H](O)[C@H]2O)c(C)c1 | 33.1 µM
C[C@H]1O[C@@H](n2cnc3c(NCc4ccc([N+](=O)[O-])cc4)ncnc32)[C@H](O)[C@@H]1O | 0.0219 µM
Nc1nc(SCc2ccc(Br)cc2)c2ncn([C@@H]3O[C@H](CO)[C@@H](O)[C@H]3O)c2n1 | 0.813 µM
CCCCCNc1ncnc2c1ncn2[C@@H]1O[C@H](CO)[C@@H](O)[C@H]1O | 13.5 µM
CCCn1cnc2c(SC(C)C)nc(N)nc21 | 145 µM
Cc1ccc(CNc2ncnc3c2ncn3[C@@H]2O[C@H](CO)[C@@H](O)[C@H]2O)cc1[N+](=O)[O-] | 1.17 µM
CSc1ncnc2c1ncn2[C@@H]1O[C@H](CO)[C@@H](O)[C@H]1O | 229 µM
CCCn1cnc2c(SCc3ccccn3)nc(N)nc21 | 91.2 µM

Compound | IC50
CC(C)Sc1nc(N)nc2c1ncn2[C@@H]1O[C@H](CO)[C@@H](O)[C@H]1O | 191 µM
OC[C@H]1O[C@@H](n2cnc3c(SC4CCCCC4)ncnc32)[C@H](O)[C@@H]1O | 6.31 µM
COc1ncnc2c1ccn2[C@@H]1O[C@H](CO)[C@@H](O)[C@H]1O | 339 µM
Nc1nc(SCc2ccccc2Cl)c2ncn([C@@H]3O[C@H](CO)[C@@H](O)[C@H]3O)c2n1 | 13.5 µM
Cc1c(CNc2ncnc3c2ncn3[C@@H]2O[C@H](CO)[C@@H](O)[C@H]2O)cccc1[N+](=O)[O-] | 0.427 µM
OC[C@H]1O[C@@H](n2cnc3c(NCc4cccs4)ncnc32)[C@H](O)[C@@H]1O | 17.8 µM
O=[N+]([O-])c1ccc(CNc2ncnc3c2ncn3[C@H]2C[C@H](O)[C@@H](CO)O2)cc1 | 0.0158 µM
Nc1nc(SCc2cccc(Br)c2)c2ncn([C@@H]3O[C@H](CO)[C@@H](O)[C@H]3O)c2n1 | 2.88 µM
CC(=O)c1ccccc1Sc1nc(N)nc2c1ncn2[C@@H]1O[C@H](CO)[C@@H](O)[C@H]1O | 447 µM
C=CCSc1ncnc2c1ncn2[C@@H]1O[C@H](CO)[C@@H](O)[C@H]1O | 13.8 µM
CCSc1nc(N)nc2c1ncn2[C@@H]1O[C@H](CO)[C@@H](O)[C@H]1O | 162 µM
CCCSc1nc(N)nc2c1ncn2CC(C)C | 63.1 µM
OC[C@H]1O[C@@H](n2ccc3c(SCc4ccccc4)ncnc32)[C@H](O)[C@@H]1O | 5.25 µM
OC[C@H]1O[C@@H](n2cnc3c(Nc4ccccc4)ncnc32)[C@H](O)[C@@H]1O [N6-PHENYLADENOSINE] | 32.4 µM
OC[C@H]1O[C@@H](n2cnc3c(CSc4cccc(F)c4)ncnc32)[C@H](O)[C@@H]1O | 0.2 µM
CC(C)(Sc1ncnc2c1ncn2[C@@H]1O[C@H](CO)[C@@H](O)[C@H]1O)c1ccccc1 | 21.4 µM
Cc1cccc(CSc2ncnc3c2ncn3[C@@H]2O[C@H](CO)[C@@H](O)[C@H]2O)c1 | 12 µM
Nc1nc(SCc2ccccc2)c2ncn([C@@H]3O[C@H](CO)[C@@H](O)[C@H]3O)c2n1 | 5.25 µM
OC[C@H]1O[C@@H](n2cnc3c(CSc4cccc(C(F)(F)F)c4)ncnc32)[C@H](O)[C@@H]1O | 0.331 µM
Nc1nc(SCCc2ccccc2)c2ncn([C@@H]3O[C@H](CO)[C@@H](O)[C@H]3O)c2n1 | 16.2 µM
OC[C@H]1O[C@@H](n2cnc3c(CSc4ccc(Cl)cc4Cl)ncnc32)[C@H](O)[C@@H]1O | 0.0776 µM

Compound | IC50
OC[C@H]1O[C@@H](n2cnc3c(CSc4cccc(I)c4)ncnc32)[C@H](O)[C@@H]1O | 0.245 µM
OC[C@H]1O[C@@H](n2cnc3c(SCC4CCCCC4)ncnc32)[C@H](O)[C@@H]1O | 1.55 µM
O=[N+]([O-])c1cccc2c1CN(c1ncnc3c1ncn3[C@@H]1O[C@H](CO)[C@@H](O)[C@H]1O)CC2 | 3.63 µM
OC[C@H]1O[C@@H](n2cnc3c(CSc4ccc(I)cc4)ncnc32)[C@H](O)[C@@H]1O | 0.0692 µM
Cc1cc(CNc2ncnc3c2ncn3[C@@H]2O[C@H](CO)[C@@H](O)[C@H]2O)ccc1[N+](=O)[O-] | 0.0871 µM
CCSc1ncnc2c1ncn2[C@@H]1O[C@H](CO)[C@@H](O)[C@H]1O | 57.5 µM
Nc1ncnc2c1ncn2[C@@H]1O[C@H](COCCOCCNc2ncnc3c2ncn3[C@@H]2O[C@H](CO)[C@@H](O)[C@H]2O)[C@@H](O)[C@H]1O | 912 µM
Nc1ccc(CNc2ncnc3c2ncn3[C@@H]2O[C@H](CO)[C@@H](O)[C@H]2O)cc1 | 4.17 µM
Cc1ccc([N+](=O)[O-])c(CNc2ncnc3c2ncn3[C@@H]2O[C@H](CO)[C@@H](O)[C@H]2O)c1 | 1.29 µM
OC[C@H]1O[C@@H](n2cnc3c(CSc4ccccc4Br)ncnc32)[C@H](O)[C@@H]1O | 2.4 µM
CCCCn1cnc2c(SC)nc(N)nc21 | 219 µM
CC(=O)Nc1ccc(CNc2ncnc3c2ncn3[C@@H]2O[C@H](CO)[C@@H](O)[C@H]2O)cc1 | 0.182 µM
CC(C)(C)c1ccc(SCc2ncnc3c2ncn3[C@@H]2O[C@H](CO)[C@@H](O)[C@H]2O)cc1 | 331 µM
Nc1ncnc2c1c(I)cn2[C@@H]1O[C@H](CO)[C@@H](O)[C@H]1O [IODOTUBERCIDIN] | 229 µM
OC[C@H]1O[C@@H](n2cnc3c(SCCCc4ccccc4)ncnc32)[C@H](O)[C@@H]1O | 1.35 µM
O=[N+]([O-])c1cccc(SCc2ncnc3c2ncn3[C@@H]2O[C@H](CO)[C@@H](O)[C@H]2O)c1 | 0.00479 µM
OC[C@H]1O[C@@H](n2cnc3c(OCc4ccccc4)ncnc32)[C@H](O)[C@@H]1O | 2.09 µM
Cc1cccc(CSc2nc(N)nc3c2ncn3[C@@H]2O[C@H](CO)[C@@H](O)[C@H]2O)n1 | 11500 µM
OC[C@H]1O[C@@H](n2cnc3c(Sc4ccccc4)ncnc32)[C@H](O)[C@@H]1O | 91.2 µM
Nc1nc(SCc2ccc([N+](=O)[O-])cc2)c2ncn([C@@H]3O[C@H](CO)[C@@H](O)[C@H]3O)c2n1 | 0.0214 µM
OC[C@H]1O[C@@H](n2ccc3c(N4CCCCC4)ncnc32)[C@H](O)[C@@H]1O | 195 µM
